Bounds are passed on as bounds.

The target of assay [1] is T1, PI3Kα (wild-type), P110/P85α (Homo sapiens, UniProt P42336).
T1 construct: made in house; host or cells: SF9 insect cells
Briefly: PI3 Kinase TR-FRET assay, PI3Kα (wild-type). The assay is classed as biochemical. In outline:
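TR-FRET read-out of PIP3 formation via biotin-PIP3 displacement (665/615 nm ratio) gave IC50 curves. Enzyme: 5 ng wild-type P110/P85α from Sf9 cells, 60 min RT with compound and PIP2 (MgCl2 40 mM, DTT 5 mM), then 30 min RT kinase reaction at 10 μM ATP and 10 μM PIP2.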

The test system of assay [2] is pS6RP(S235/236), PC3 cells. Briefly: In-cell Western assay, pS6RP(S235/236) in PC3 cells. The format is cell-based, human. To be noted: Homo sapiens, PC-3, In-cell Western. The protocol: Cells from human prostate cancer cell line PC3 (American Type Culture Collection (ATCC), Manassas, Va. 20108 USA) were seeded at an optimal density of 22,000 cell/well in 96-well plates containing Ham's F12K medium (90 μL) and incubated overnight. The compound dilutions were carried out in 100% DMSO followed by a dilution in the medium. Test compounds were added in serial dilutions to the wells and incubated for 2 h. The cells were washed and fixed with 4% paraformaldehyde. After incubation at room temperature for 1 h in the dark, blocking was done for 2 h at room temperature. Primary antibodies for phosphorylated (p) AKT(5473) (phosphorylated at serine 473), pAKT(T308) (phosphorylated at threonine 308) and for pS6RP(S235/236) (phosphorylated at serine 235/236) (commercially available from Cell Signaling Technology®, whose protocol was followed for the in-cell western assay, were diluted to the required concentration and added to the corresponding wells followed by overnight incubation at 4° C. Eu-labeled rabbit (PE) (Perkin-Elmer USA catalog #AD0106) secondary antibody was added and incubated for 2 h at room temperature. Delfia® enhancement solution (cat #1244-105, Perkin Elmer USA) was subsequently added to the plate before taking the reading at 615 nm with excitation wavelength of 340 nm, after which 0.5 μg/mL of Hoechst® 33258 dye (Catalog #86140-5, Sigma) was added to the plate and fluorescence emission was read at 460 nm with 355 nm excitation, to evaluate the correction factor. IC50 values were calculated using a sigmoidal dose-response curve fit in GraphPad Prism® v5 software.

Assay [3] relates to PC3 cells. Briefly: XTT assay for cell viability, PC3 cells. The assay is classed as cell-based, human. Conditions: Homo sapiens, PC-3, cell viability. The gist of the method:
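PC3 cells seeded at 1000 cells/well, grown 24 h, then exposed to serial dilutions of compound for 96 h. Viability read by XTT dye at 37° C, absorbance 465 nm. EC50 from sigmoidal dose-response fit.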
Background: Tetrazolium dyes change colour on reduction, which living cells bring about.

Assay [4] deals with T2, mTOR kinase (Homo sapiens, UniProt P42345).
T2 construct: purchased Millipore, USA
Nature of the assay: mTOR kinase TR-FRET assay. The assay is classed as biochemical. To be noted: read-out: mTO R. The gist of the method: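 TR-FRET read-out (340 nm excitation, 615/665 nm emission) of Thr389 phosphorylation of a ULight-labeled p70 S6K peptide (50 nM) by mTOR, 20 μM ATP, 60 min room temperature after 60 min compound preincubation. Buffer HEPES pH 7.5 with MnCl2, EGTA; IC50 by sigmoidal dose-response.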
Background: In TR-FRET formats the signal depends on donor and acceptor labels being close together.

T1 sequence (P42336 whole entry): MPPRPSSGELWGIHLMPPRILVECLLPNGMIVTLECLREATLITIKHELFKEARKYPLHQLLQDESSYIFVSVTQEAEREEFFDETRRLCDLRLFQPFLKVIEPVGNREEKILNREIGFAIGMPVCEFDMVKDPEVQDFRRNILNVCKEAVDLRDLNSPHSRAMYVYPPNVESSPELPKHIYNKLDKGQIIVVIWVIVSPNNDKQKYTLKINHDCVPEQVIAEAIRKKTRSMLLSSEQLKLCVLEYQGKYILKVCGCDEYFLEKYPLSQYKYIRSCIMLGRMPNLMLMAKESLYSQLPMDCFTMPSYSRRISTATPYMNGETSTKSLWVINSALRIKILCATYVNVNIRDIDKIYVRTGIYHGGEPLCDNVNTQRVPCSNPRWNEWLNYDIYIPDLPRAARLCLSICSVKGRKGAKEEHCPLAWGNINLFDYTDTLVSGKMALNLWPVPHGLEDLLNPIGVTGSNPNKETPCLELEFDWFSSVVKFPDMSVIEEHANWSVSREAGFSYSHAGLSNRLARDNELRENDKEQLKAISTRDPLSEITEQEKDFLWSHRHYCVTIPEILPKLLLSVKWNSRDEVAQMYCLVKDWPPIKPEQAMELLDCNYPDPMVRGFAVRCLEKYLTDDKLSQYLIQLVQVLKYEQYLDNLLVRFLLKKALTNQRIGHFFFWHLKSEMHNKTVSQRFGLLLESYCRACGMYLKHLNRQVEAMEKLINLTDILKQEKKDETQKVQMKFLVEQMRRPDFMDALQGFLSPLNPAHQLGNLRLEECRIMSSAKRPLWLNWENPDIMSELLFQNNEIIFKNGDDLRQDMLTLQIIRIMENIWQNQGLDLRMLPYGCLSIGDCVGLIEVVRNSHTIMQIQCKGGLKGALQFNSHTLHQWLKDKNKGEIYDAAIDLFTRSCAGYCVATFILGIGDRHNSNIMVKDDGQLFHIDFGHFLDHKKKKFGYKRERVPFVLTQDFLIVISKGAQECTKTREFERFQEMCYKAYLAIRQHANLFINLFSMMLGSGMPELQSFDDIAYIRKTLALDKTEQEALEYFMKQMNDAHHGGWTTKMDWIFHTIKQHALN
T1 sequence (P27986 whole entry partner): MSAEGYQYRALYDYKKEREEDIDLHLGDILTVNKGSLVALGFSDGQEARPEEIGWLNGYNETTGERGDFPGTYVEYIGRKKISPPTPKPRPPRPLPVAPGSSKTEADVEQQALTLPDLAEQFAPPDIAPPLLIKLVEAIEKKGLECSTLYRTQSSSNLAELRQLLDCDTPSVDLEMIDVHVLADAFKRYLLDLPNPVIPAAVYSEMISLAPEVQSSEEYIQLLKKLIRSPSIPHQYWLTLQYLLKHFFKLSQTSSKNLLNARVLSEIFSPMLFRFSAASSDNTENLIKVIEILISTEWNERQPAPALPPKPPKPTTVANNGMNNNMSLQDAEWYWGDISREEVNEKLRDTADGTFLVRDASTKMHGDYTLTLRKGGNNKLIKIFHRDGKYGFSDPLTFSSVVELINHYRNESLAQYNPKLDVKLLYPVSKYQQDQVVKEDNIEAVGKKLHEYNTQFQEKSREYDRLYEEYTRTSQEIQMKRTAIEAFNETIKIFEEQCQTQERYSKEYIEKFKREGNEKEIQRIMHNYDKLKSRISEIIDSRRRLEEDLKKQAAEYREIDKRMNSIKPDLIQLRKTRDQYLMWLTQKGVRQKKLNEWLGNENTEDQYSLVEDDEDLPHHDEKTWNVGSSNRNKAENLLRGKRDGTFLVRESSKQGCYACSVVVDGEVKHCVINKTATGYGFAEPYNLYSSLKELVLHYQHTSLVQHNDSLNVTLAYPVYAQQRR

On to `CN(C)C(=O)c1ccc(NC(=O)Nc2ccc(-c3nc(N4CCOCC4)c4ccc(-c5cccnc5F)cc4n3)cc2F)cc1` [Example 91, 4-(3-(2-fluoro-4-(7-(2-fluoropyridin-3-yl)-4-morpholino-quinazolin-2-yl)phenyl)ureido)-N,N-dimethyl-benzamide], for which the IC50 in assay [1] is below 50 nM; in assay [2] it was 201 to 10000 nM; in assay [3], 201 to 10000 nM; in assay [4], below 50 nM.
With `CN(C)C(=O)c1ccc(NC(=O)Nc2ccc(-c3nc(N4CCOCC4)c4ncc(-c5cnc(N)nc5)cc4n3)cc2)cc1` [Example 92, 4-(3-(4-(7-(2-aminopyrimidin-5-yl)-4-morpholino-pyrido[3,2-d]pyrimidin-2-yl)phenyl)ureido)-N,N-dimethyl-benzamide], the IC50 in assay [1] is below 50 nM; in assay [2] it was 201 to 10000 nM; in assay [3], 201 to 10000 nM; in assay [4] it was below 50 nM.
For the molecule `Cc1ccncc1-c1cnc2c(N3CCOCC3)nc(-c3ccc(NC(=O)Nc4ccc(C(=O)N(C)C)cc4)cc3)nc2c1` [Example 93, N,N-dimethyl-4-(3-(4-(7-(4-methylpyridin-3-yl)-4-morpholino-pyrido[3,2-d]pyrimidin-2-yl)phenyl)ureido)-benzamide], the IC50 in assay [1] is below 50 nM; in assay [2] it was 201 to 10000 nM; in assay [3], 201 to 10000 nM; in assay [4], below 50 nM.
Regarding `COc1ncc(-c2cnc3c(N4CCOCC4)nc(-c4ccc(NC(=O)Nc5ccc(C(=O)N(C)C)cc5)cc4)nc3c2)cn1` [Example 94, 4-(3-(4-(7-(2-methoxypyrimidin-5-yl)-4-morpholino-pyrido[3,2-d]pyrimidin-2-yl)phenyl)ureido)-N,N-dimethyl-benzamide], the IC50 in assay [1] was below 50 nM; in assay [2], 201 to 10000 nM; in assay [3], 201 to 10000 nM; in assay [4], below 50 nM.
With `COc1cccc(-c2ccc3c(N4CCOCC4)nc(-c4ccc(NC(=O)Nc5ccc(C(=O)N(C)C)cc5)cc4)nc3c2)n1` [Example 95, 4-(3-(4-(7-(6-methoxypyridin-2-yl)-4-morpholino-quinazolin-2-yl)phenyl)ureido)-N,N-dimethyl-benzamide], the IC50 in assay [1] is 50 to 200 nM; in assay [2], 501 to 5000 nM; in assay [3] it was below 100 nM; in assay [4], 50 to 200 nM.
For `CN(C)C(=O)c1ccc(NC(=O)Nc2ccc(-c3nc(N4CCOCC4)c4ncc(-c5ccnnc5)cc4n3)cc2)cc1` [Example 96, N,N-dimethyl-4-(3-(4-(4-morpholino-7-(pyridazin-4-yl)pyrido[3,2-d]pyrimidin-2-yl)phenyl)ureido)-benzamide], the IC50 is below 50 nM in assay [1], 201 to 10000 nM in assay [2], 201 to 10000 nM in assay [3] and below 50 nM in assay [4].
Consider `CN(C)C(=O)c1ccc(NC(=O)Nc2ccc(-c3nc(N4CCOCC4)c4ccc(-c5cnn(C)c5)cc4n3)cc2F)cc1` [Example 97, 4-(3-(2-fluoro-4-(7-(1-methyl-1H-pyrazol-4-yl)-4-morpholino-quinazolin-2-yl)phenyl)ureido)-N,N-dimethyl-benzamide], for which the IC50 was below 50 nM in assay [1], 201 to 10000 nM in assay [2], 201 to 10000 nM in assay [3] and below 50 nM in assay [4].
Take `CN(C)C(=O)c1ccc(NC(=O)Nc2ccc(-c3nc(N4CCOCC4)c4ccc(-c5ccnnc5)cc4n3)cc2F)cc1` [Example 98, 4-(3-(2-fluoro-4-(4-morpholino-7-(pyridazin-4-yl)quinazolin-2-yl)phenyl)ureido)-N,N-dimethyl-benzamide]: the IC50 was 50 to 200 nM in assay [1], 201 to 10000 nM in assay [2], 201 to 10000 nM in assay [3] and below 50 nM in assay [4].
Consider `CN(C)C(=O)c1ccc(NC(=O)Nc2ccc(-c3nc(N4CCOCC4)c4cc(F)c(-c5cncnc5)cc4n3)cc2F)cc1` [Example 99, 4-(3-(2-fluoro-4-(6-fluoro-4-morpholino-7-(pyrimidin-5-yl)quinazolin-2-yl)phenyl)ureido)-N,N-dimethyl-benzamide], for which the IC50 was below 50 nM in assay [1], 201 to 10000 nM in assay [2], 201 to 10000 nM in assay [3] and below 50 nM in assay [4].
Take `Cc1ccncc1-c1ccc2c(N3CCOCC3)nc(-c3ccc(NC(=O)Nc4ccc(C(=O)N(C)C)cc4)c(F)c3)nc2c1` [Example 100, 4-(3-(2-fluoro-4-(7-(4-methylpyridin-3-yl)-4-morpholino-quinazolin-2-yl)phenyl)ureido)-N,N-dimethyl-benzamide]: the IC50 in assay [1] was below 50 nM; in assay [2], 201 to 10000 nM; in assay [3], 201 to 10000 nM; in assay [4], below 50 nM.
In the case of `CN(C)C(=O)c1ccc(NC(=O)Nc2ccc(-c3nc(N4CCOCC4)c4ncc(-c5cncnc5)cc4n3)cc2F)cc1` [Example 101, 4-(3-(2-fluoro-4-(4-morpholino-7-(pyrimidin-5-yl)pyrido[3,2-d]pyrimidin-2-yl)phenyl)ureido)-N,N-dimethyl-benzamide], the IC50 in assay [1] is below 50 nM; in assay [2] it was 201 to 10000 nM; in assay [3], 201 to 10000 nM; in assay [4], below 50 nM.
`CN(C)C(=O)c1ccc(NC(=O)Nc2ccc(-c3nc(N4CCOCC4)c4ncc(-c5cccnc5)cc4n3)cc2F)cc1` [Example 102, 4-(3-(2-fluoro-4-(4-morpholino-7-(pyridin-3-yl)pyrido[3,2-d]pyrimidin-2-yl)phenyl)ureido)-N,N-dimethyl-benzamide]: the IC50 was below 50 nM in assay [1], 201 to 10000 nM in assay [2], 201 to 10000 nM in assay [3] and below 50 nM in assay [4].
As for `CN(C)C(=O)c1ccc(NC(=O)Nc2ccc(-c3nc(N4CCOCC4)c4ccc(-c5cccnc5)cc4n3)cc2F)cc1` [Example 103, 4-(3-(2-fluoro-4-(4-morpholino-7-(pyridin-3-yl)quinazolin-2-yl)phenyl)ureido)-N,N-dimethyl-benzamide], the IC50 in assay [1] is below 50 nM; in assay [2] it was 201 to 10000 nM; in assay [3], 201 to 10000 nM; in assay [4], below 50 nM.
`COc1ncc(-c2ccc3c(N4CCOCC4)nc(-c4ccc(NC(=O)Nc5ccc(C(=O)N(C)C)cc5)c(F)c4)nc3c2)cn1` [Example 105, 4-(3-(2-fluoro-4-(7-(2-methoxypyrimidin-5-yl)-4-morpholino-quinazolin-2-yl)phenyl)ureido)-N,N-dimethyl-benzamide]: the IC50 was 50 to 200 nM in assay [1], 201 to 10000 nM in assay [2], 201 to 10000 nM in assay [3] and below 50 nM in assay [4].
`CN(C)C(=O)c1ccc(NC(=O)Nc2ccc(-c3nc(N4CCOCC4)c4ncc(-c5cccnc5F)cc4n3)cc2F)cc1` [Example 106, 4-(3-(2-fluoro-4-(7-(2-fluoropyridin-3-yl)-4-morpholino-pyrido[3,2-d]pyrimidin-2-yl)phenyl)ureido)-N,N-dimethyl-benzamide]: the IC50 is below 50 nM in assay [1], 201 to 10000 nM in assay [2], 201 to 10000 nM in assay [3] and below 50 nM in assay [4].
Turning to `CN(C)C(=O)c1ccc(NC(=O)Nc2ccc(-c3nc(N4CCOCC4)c4cc(F)c(-c5cccnc5F)cc4n3)cc2)cc1` [Example 107, 4-(3-(4-(6-fluoro-7-(2-fluoropyridin-3-yl)-4-morpholino-quinazolin-2-yl)phenyl)ureido)-N,N-dimethyl-benzamide], the IC50 is below 50 nM in assay [1], 201 to 10000 nM in assay [2], 201 to 10000 nM in assay [3] and below 50 nM in assay [4].
As to `CN(C)C(=O)c1ccc(NC(=O)Nc2ccc(-c3nc(N4CCOCC4)c4cc(F)c(-c5cccnc5F)cc4n3)cn2)cc1` [Example 112, 4-(3-(5-(6-fluoro-7-(2-fluoropyridin-3-yl)-4-morpholino-quinazolin-2-yl)pyridin-2-yl)ureido)-N,N-dimethyl-benzamide], the IC50 in assay [1] was below 50 nM; in assay [2], 501 to 5000 nM; in assay [3], below 100 nM; in assay [4] it was 201 to 10000 nM.
As for `CN(C)C(=O)c1ccc(NC(=O)Nc2ccc(-c3nc(N4CCOCC4)c4ncc(-c5cccc(S(C)(=O)=O)c5)cc4n3)cn2)cc1` [Example 115, N,N-dimethyl-4-(3-(5-(7-(3-(methylsulfonyl)phenyl)-4-morpholino-pyrido[3,2-d]pyrimidin-2-yl)pyridin-2-yl)ureido)-benzamide], the IC50 in assay [1] was below 50 nM; in assay [2], 201 to 10000 nM; in assay [3] it was 201 to 10000 nM; in assay [4], 50 to 200 nM.

For the origin of these results see patent US9115092B2, “Substituted quinazoline and pyrido-pyrimidine derivatives” (Asana Biosciences, LLC, priority 2010, dated 2015).
